Patent US20130071400A1, “LINGO binding molecules and Pharmaceutical Use Thereof” (NOVARTIS AG, priority 2006, published 2013)

Tested on: postnatal day 7 rat cerebellar granule neurons (CGN)
Assay: Neurite outgrowth inhibition assay on spinal cord myelin
Format: cell-based
Experimental: A) P7 CGN cells are incubated for 16 hr on wells coated without spinal cord myelin (no SC, white bars) or wells coated with spinal cord myelin in the absence (SC, red bars) or presence of anti-LINGO-1 IgG4 antibodies, a control anti-lysozyme IgG4 antibody 3207 (green bars) or […] of the ROCK inhibitor Y27632 (yellow bar). […] The experiment is performed in three 96 well plates with an SC and no SC condition per plate to which the effects of the antibodies on that plate are compared and mean neurite length per neuron (μm) is calculated for 500 neurons per well in replicates of 10. The percentage inhibition (white text) is calculated as the percentile difference in mean neurite length/neuron between cells plated on wells coated with and without SC. The percentage disinhibition (black italic text) is calculated as the difference in mean neurite length between cells plated on SC in the presence and absence of anti-LINGO-1 antibody as a percentile of the difference between cells plated on wells coated with and without SC. *p<0.05, **p<0.01 (one way ANOVA, Holm-Sidak comparison to mean neurite length/neuron for cells plated on spinal cord myelin in the absence of antibody).
A) P7 CGN cells are incubated for 8 hr on wells coated without spinal cord myelin (no SC, white bars) or wells coated with spinal cord myelin in the absence (SC, red bars) or presence of anti-LINGO-1 IgG4 antibodies or a control anti-lysozyme IgG4 antibody 3207. The experiment is performed in three 96 well plates with an SC and no SC condition per plate to which the effects of the antibodies on that plate are compared and mean neurite length per neuron (μm) is calculated for 500 neurons per well in replicates of 10. The percentage inhibition (white text) and disinhibition (black italic text) is calculated as above. **p<0.01 (one way ANOVA, Holm-Sidak comparison to mean neurite length/neuron for cells plated on spinal cord myelin in the absence of antibody).
P7 CGN cells are incubated for 8 hr on wells coated without spinal cord myelin (no SC) or wells coated with spinal cord myelin in the absence (SC) or presence of the indicated concentrations of anti-LINGO-1 IgG4 antibodies 4784 or 4785, a control anti-lysozyme IgG4 antibody 3207 or 1 μM Y27632 (ROCK). The experiment is performed in three 96 well plates with an SC and no SC condition per plate to which the effects of the antibodies on that plate are compared and mean neurite length per neuron (μm) is calculated for 500 neurons per well in replicates of 10. The percentage inhibition (white text) and disinhibition (black italic text) is calculated as above. *p<0.05, **p<0.01 (one way ANOVA, Holm-Sidak comparison to mean neurite length/neuron for cells plated on spinal cord myelin in the absence of antibody). […]

C[C@@H](N)[C@H]1CC[C@H](C(=O)Nc2ccncc2)CC1 [Y27632, reference compound]
disinhibition of spinal cord myelin (1 μM Y27632, 8 hr incubation (FIG. 4)): 65-74% | disinhibition of spinal cord myelin (neurite outgrowth) (1 μm Y27632, 16 hr incubation (FIG. 2), compared to 4784 and 4785): greater level of disinhibition
